Source: patent US10280170B2, “Substituted 4,5,6,7-tetrahydro-pyrazolo[1,5-a]pyrazine derivatives and 5,6,7,8-tetrahydro-4H-pyrazolo[1,5-a][1,4]diazepine derivatives as Ros1 inhibitors” (Janssen Pharmaceutica NV, priority 2014, dated 2019)
Read-outs that look alike come from different tables or passages of the source.

Tests used:
[1] = system: HCC78 non-small cell lung cancer cells; experiment: HCC78 cell proliferation assay; assay type: cell-based; conditions: for EC50: Homo sapiens, HCC78, 96 h, read-out: HCC-78 PROL pEC50 (converted)
Description: HCC78 Cell Proliferation Assay
Approximately 1000 HCC78 non-small cell lung cancer cells in 180 μl of cell culture medium (RPMI-1640, 10% FBS, 2 mM L-Glutamine, 10 mM Hepes, 1 mM sodium pyruvate, 4.5 g/L glucose, 1.5 g/L sodium bicarbonate, 25 μg/ml Gentamycin) were seeded in each well of a 96-well polystyrene, tissue-culture treated plate and incubated at 37° C. and 5% CO2. After 24 hours, compounds were diluted in cell culture medium from which 20 μl was added to the wells containing cells and incubated for 4 days at 37° C. and 5% CO2. A 5 mg/ml solution of the tetrazolium dye MTT was prepared in PBS (phosphate-buffered saline) and 25 μl was added to each well. After 2 hours the medium was removed and replaced by 125 μL of 4/1 DMSO/glycine buffer (0.1M glycine, 0.1M NaCl, pH 10.5) before absorbance was determined at 538 nm.

Ros1 enzyme = molecular target: T1, Ros1 enzyme (Homo sapiens, UniProt P08922); experiment: Ros1 enzymatic assay; assay type: biochemical; conditions: Ros1 enzymatic assay; for IC50: read-out: ROS1 pIC50 (converted)
T1 construct: 0.5 μg/ml Ros1 enzyme
T1 sequence (P08922 28-2347): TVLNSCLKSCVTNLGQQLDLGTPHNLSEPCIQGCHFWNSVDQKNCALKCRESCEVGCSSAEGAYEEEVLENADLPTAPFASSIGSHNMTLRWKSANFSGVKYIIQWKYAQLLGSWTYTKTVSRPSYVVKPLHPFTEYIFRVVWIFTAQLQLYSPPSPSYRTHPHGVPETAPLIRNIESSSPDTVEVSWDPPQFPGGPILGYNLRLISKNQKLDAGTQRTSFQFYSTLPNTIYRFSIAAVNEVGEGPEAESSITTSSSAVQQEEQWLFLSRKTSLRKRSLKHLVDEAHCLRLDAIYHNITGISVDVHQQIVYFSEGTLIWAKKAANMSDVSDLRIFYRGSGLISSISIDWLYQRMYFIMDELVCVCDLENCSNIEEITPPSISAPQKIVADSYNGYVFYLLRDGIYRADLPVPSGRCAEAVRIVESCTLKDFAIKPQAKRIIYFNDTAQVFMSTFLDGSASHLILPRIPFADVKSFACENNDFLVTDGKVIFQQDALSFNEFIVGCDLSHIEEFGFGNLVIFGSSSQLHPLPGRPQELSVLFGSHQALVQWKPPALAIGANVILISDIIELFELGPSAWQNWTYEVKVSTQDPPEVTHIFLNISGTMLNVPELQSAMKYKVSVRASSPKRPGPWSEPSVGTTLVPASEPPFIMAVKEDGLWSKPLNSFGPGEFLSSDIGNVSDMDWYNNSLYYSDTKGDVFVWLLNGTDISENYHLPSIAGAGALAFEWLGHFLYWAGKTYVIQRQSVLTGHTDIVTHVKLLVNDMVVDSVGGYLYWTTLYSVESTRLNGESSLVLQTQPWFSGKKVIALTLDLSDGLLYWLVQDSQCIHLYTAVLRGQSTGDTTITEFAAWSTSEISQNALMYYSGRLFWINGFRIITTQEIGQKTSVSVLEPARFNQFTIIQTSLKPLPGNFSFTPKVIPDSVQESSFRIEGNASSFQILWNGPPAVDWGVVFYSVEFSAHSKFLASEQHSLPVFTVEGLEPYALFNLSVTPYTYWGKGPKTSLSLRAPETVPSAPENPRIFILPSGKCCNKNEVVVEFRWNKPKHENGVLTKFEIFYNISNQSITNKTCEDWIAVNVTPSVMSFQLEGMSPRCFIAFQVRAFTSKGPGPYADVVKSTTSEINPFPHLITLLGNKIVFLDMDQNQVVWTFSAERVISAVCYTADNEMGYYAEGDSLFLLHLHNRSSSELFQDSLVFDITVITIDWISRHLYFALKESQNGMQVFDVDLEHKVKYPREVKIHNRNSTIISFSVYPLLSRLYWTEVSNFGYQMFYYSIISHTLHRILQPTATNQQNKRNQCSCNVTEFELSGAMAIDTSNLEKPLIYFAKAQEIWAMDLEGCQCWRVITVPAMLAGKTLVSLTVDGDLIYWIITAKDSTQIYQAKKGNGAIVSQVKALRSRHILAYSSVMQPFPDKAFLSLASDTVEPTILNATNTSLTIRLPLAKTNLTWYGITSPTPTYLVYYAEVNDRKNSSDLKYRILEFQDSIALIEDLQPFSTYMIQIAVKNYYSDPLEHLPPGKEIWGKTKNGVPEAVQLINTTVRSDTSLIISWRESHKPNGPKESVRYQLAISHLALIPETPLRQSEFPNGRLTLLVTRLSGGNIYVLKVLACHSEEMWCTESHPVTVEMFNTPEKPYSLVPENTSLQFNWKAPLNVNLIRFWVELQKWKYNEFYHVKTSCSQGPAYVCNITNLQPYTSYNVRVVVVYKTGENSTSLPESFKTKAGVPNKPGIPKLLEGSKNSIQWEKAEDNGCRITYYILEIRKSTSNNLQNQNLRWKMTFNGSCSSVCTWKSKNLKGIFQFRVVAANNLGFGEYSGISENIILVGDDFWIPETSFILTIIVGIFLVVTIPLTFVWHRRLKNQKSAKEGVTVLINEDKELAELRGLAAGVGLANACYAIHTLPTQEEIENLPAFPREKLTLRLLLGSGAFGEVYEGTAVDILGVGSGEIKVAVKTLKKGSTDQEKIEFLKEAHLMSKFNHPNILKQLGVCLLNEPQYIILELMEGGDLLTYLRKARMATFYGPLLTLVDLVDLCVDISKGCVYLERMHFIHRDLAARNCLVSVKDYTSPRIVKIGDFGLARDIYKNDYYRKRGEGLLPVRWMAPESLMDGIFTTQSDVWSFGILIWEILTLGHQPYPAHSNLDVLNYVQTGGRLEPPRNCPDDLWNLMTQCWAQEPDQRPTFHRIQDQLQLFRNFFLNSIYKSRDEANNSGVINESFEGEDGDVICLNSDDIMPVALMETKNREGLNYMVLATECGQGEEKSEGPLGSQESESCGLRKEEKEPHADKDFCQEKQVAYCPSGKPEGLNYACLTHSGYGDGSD
Method in brief: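 First, compounds meet Ros1 enzyme mix plus substrate mix containing IRS-Tide and 33P-labelled ATP at 20 μM. Next, incubation lasts 120 minutes at room temperature. Then EDTA stop buffer with streptavidin beads is added for 15 minutes, and bead-bound radioactivity is imaged.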

[2] = molecular target: Ba/F3 cells containing Ros1 with a mutation at the gatekeeper residue (L2026M) (Homo sapiens, UniProt P08922, L2026M, cells depend on it, form not given); experiment: Ba/F3-Ros1 cell proliferation assay, L2026M gatekeeper mutant; assay type: cell-based, murine; conditions: without IL-3
Chain of Ba/F3 cells containing Ros1 with a mutation at the gatekeeper residue (L2026M) (P08922 whole entry L2026M, form open): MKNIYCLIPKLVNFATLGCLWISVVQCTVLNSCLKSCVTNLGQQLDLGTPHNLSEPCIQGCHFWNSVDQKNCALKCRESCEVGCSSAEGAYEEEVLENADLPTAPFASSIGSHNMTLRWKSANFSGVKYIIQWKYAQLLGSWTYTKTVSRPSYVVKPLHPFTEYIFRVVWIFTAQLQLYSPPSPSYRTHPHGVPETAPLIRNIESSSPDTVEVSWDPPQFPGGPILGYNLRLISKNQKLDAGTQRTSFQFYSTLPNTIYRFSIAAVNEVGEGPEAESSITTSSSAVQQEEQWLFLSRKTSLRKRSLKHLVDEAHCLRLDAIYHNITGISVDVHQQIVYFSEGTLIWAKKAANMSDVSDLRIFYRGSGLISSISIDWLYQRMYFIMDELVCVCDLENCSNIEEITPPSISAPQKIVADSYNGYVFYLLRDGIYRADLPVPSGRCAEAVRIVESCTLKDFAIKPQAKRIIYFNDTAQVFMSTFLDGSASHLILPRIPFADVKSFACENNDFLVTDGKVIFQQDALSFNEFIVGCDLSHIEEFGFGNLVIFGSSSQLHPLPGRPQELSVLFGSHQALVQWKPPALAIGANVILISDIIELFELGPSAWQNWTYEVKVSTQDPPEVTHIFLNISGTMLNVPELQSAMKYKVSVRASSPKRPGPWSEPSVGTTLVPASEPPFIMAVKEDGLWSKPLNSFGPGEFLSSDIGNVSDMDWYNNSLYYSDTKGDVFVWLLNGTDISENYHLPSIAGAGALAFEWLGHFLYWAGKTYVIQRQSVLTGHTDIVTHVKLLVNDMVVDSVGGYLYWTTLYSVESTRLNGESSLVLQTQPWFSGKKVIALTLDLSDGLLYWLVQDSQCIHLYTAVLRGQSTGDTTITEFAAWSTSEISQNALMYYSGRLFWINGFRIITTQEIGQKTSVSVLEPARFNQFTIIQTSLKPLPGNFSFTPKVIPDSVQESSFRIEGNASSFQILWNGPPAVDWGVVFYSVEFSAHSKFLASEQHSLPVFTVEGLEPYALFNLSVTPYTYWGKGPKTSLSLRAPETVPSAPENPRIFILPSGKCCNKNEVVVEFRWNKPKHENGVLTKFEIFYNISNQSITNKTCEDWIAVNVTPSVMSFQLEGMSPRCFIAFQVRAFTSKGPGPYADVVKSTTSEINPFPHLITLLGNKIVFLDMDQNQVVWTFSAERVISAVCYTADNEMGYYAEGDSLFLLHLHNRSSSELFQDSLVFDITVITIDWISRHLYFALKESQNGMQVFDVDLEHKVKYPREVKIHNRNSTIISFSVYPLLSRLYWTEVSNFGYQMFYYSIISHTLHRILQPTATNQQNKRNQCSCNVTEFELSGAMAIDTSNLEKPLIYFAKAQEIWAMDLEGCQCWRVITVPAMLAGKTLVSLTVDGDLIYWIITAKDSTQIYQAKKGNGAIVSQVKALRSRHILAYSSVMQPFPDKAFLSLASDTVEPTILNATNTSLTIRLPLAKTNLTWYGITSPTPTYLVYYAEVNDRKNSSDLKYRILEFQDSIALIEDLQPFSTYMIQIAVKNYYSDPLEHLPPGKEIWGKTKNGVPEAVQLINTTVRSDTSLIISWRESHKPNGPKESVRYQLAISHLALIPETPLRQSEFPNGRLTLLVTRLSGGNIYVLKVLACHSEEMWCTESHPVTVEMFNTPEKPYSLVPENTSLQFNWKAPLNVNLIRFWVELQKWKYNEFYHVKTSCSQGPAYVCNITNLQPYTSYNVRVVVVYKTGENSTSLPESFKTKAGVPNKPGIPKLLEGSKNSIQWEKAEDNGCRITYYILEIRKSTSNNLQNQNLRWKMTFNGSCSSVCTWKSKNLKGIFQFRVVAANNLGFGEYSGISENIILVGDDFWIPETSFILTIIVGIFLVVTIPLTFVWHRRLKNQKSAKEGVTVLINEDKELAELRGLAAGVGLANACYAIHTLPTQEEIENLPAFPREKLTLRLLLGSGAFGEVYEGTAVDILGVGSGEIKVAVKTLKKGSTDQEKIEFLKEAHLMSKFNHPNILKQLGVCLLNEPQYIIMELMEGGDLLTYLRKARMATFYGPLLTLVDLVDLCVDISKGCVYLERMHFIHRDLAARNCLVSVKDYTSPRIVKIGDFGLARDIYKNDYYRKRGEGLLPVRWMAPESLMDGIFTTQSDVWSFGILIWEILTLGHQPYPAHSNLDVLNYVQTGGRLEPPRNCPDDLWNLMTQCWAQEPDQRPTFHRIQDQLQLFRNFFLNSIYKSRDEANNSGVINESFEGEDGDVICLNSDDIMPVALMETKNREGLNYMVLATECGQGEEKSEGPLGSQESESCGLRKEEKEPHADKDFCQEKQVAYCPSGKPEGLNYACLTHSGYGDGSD
Method in brief: (§1)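 Ba/F3 cells expressing wild-type, L2026M or G2032R Ros1, 20000 cells/well in phenol red-free RPMI-1640 with 10% FBS, 2 mM L-glutamine, exposed to compound for 24 h at 37 °C, 5% CO2. Viability read by Alamar Blue (resazurin) fluorescence, ex 540/em 590 nm, after 4 h further incubation.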

[3] = molecular target: T2, Ba/F3 cells containing Ros1 wild-type protein (Homo sapiens, UniProt P08922, cells depend on it, form not given); experiment: Ba/F3-Ros1 cell proliferation assay, wild-type Ros1; assay type: cell-based, murine; conditions: without IL-3
T2 construct: The background only speaks of 'a number of different unrelated proteins' and names SLC34A2-ROS1 for HCC78 cells
T2 sequence (P08922 whole entry, stated change not applied): as the sequence (P08922 whole entry L2026M, form open) above, with M2026L counted along it
Method in brief: as §1

[4] = system: Ba/F3 cells containing Ros1 wild-type protein + IL-3; experiment: Ba/F3-Ros1 cell proliferation counter-screen, wild-type protein in the presence of 10 ng/ml murine IL-3; assay type: cell-based; conditions: Mus musculus, BaF3, 24 h, read-out: BaF3-ROS1 + IL3 pIC50 (converted)
Method in brief: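 Compounds were dispensed from DMSO into plates, and 20000 Ba/F3 cells carrying wild-type Ros1 were added in phenol red-free RPMI-1640 with 10% FBS plus 10 ng/ml murine IL-3. After 24 h at 37 °C, Alamar Blue was added for 4 h and fluorescence recorded.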

[5] = counter-screen, wild-type, 10 ng/ml murine IL-3

| Structure (SMILES) | HCC-78 PROL pEC50 ([1]; HCC78 cells, 4 days, MTT) | melting point [°C] | IC50 (Ros1 enzyme) [nM] | Ba/F3 Ros1 L2026M (-IL-3) pIC50 [2] | BaF3-ROS1-IL3 pIC50 [3] | ROS1 pIC50 (Ros1 enzyme) | EC50 [1] [nM] | CC50 [4] [µM] | EC50 ([1]; HCC78 cells, 4 days, MTT) [nM] | CC50 [4, 5] [µM] |
| --- | --- | --- | --- | --- | --- | --- | --- | --- | --- | --- |
| CC(O)CN1CCn2nc(-c3ccncc3)c(-c3ccc(OCc4ccc(C5CC5)cc4)cc3)c2C1=O (stereo not shown) [Compound 135] | 6.5 | 197 | 158 | 7.0 | 7.3 |  |  |  |  |  |
| CC(C)c1ccc(COc2ccc(-c3c(-c4ccncc4)nn4c3C(=O)N(CC(O)CO)CC4)c(F)c2)cc1 (stereo not shown) [Compound 22] | 7.7 | 188 |  | 7.4 | 7.8 | 7.9 |  |  |  |  |
| CC(C)c1ccc(COc2ccc(-c3c(-c4ccncc4)nn4c3C(=O)N(C)C(CO)C4)cc2)cc1 (stereo not shown) [Compound 196] |  |  | 158 | 6.4 | 6.9 |  | 631 | > 10 |  |  |
| CC(C)c1ccc(COc2ccc(-c3c(-c4ccncc4)nn4c3C(=O)N(CCN)CC4)cc2)cc1 [Compound 59] |  |  | 63.1 | ~6.1 | 6.4 |  |  |  | 501 | 5.01 |
| CC(C)c1ccc(COc2c(F)cc(-c3c(-c4ccncc4)nn4c3C(=O)NCC4)cc2F)cc1 [Compound 15] |  |  | 39.8 | 7.5 | 7.5 |  | 50.1 | > 10 |  |  |
| CC(C)c1ccc(COc2ccc(-c3c(-c4ccncc4)nn4c3C(=O)N(CC3CNC(=O)O3)CC4)cc2)cc1 (stereo not shown) [Compound 56] |  |  | 39.8 | 7.0 | 7.5 |  | 126 | > 10 |  |  |
| CNC(=O)CN1CCn2nc(-c3ccncc3)c(-c3ccc(OCc4ccc(C(C)C)cc4)cc3F)c2C1 [Compound 209] |  |  | 63.1 | 7.5 | 7.5 |  | 501 | 5.01 |  |  |
| CC(C)c1ccc(COc2ccc(-c3c(-c4ccncc4)nn4c3C(=O)N(C(C)CO)CC4)cc2)cc1 (single isomer, unassigned) [Compound 39] | 6.8 |  | 79.4 | 7.0 | 7.3 |  |  |  |  | > 10 |
| CC(=O)OC(C)CN1CCn2nc(-c3ccncc3)c(-c3ccc(OCc4ccc(C(C)C)cc4)cc3)c2C1=O (stereo not shown) [Compound 69] |  |  | 63.1 | <5 | 7.4 |  |  |  | 200 | > 10 |
| CNCCc1cc(COc2ccc(-c3c(-c4ccncc4)nn4c3C(=O)N(C)CC4)cc2)ccc1C(C)C [Compound 236] |  |  | 15.8 | 7.4 | 7.6 |  |  |  | 126 | 3.98 |
| Fc1cc(OCc2ccc(C3CC3)cc2)ccc1-c1c(-c2ccncc2)nn2c1CNCC2 [Compound 184] |  |  | 100 | 6.6 | 7.3 |  |  |  | 251 | > 10 |
| CC(C)c1cc(F)c(COc2ccc(-c3c(-c4ccncc4)nn4c3C(=O)N(CC(O)CO)CC4)cc2)c(F)c1 (stereo not shown) [Compound 96] | 5.9 | 228 |  | 6.6 | 6.9 | 6.8 |  |  |  |  |
| CC(C)c1ccc(COc2cc(F)c(-c3c(-c4ccncc4)nn4c3C(=O)NCC4)cc2F)cc1 [Compound 14] |  |  | 6.31 | 8.2 | 7.8 |  | < 31.6 | > 10 |  |  |
| CC(C)c1cc(F)c(COc2ccc(-c3c(-c4ccncc4)nn4c3C(=O)N(CC(O)CO)CC4)cc2)cc1F (stereo not shown) [Compound 99] | 5.7 | 183 | 501 | 6.0 | 6.6 |  |  |  |  |  |
| CC(CO)c1ccc(COc2ccc(-c3c(-c4ccncc4)nn4c3C(=O)N(CCO)CC4)cc2)cc1 (stereo not shown) [Compound 128] |  |  | 1260 | 6.2 | 6.6 |  | 1000 | > 10 |  |  |
| C[Si](C)(C)c1ccc(COc2ccc(-c3c(-c4ccncc4)nn4c3C(=O)NCC4)cc2)cc1 [Compound 232] |  |  | 2000 | 6.5 | 6.7 |  |  |  | 2510 | > 10 |
| CNCCc1cc(COc2ccc(-c3c(-c4ccncc4)nn4c3C(=O)N(CCO)CC4)cc2)ccc1C(C)C [Compound 235] |  |  | 25.1 | 6.5 | 6.7 |  |  |  | 316 | > 10 |
| CC(C)c1ccc(CC(=O)N2CC=C(c3c(-c4ccncc4)nn4c3C(=O)NCC4)CC2)cc1 [Compound 77] |  |  | 316 | 6.3 | 6.3 |  | 2000 | > 10 |  |  |
| CNCCc1cc(COc2ccc(-c3c(-c4ccncc4)nn4c3C(=O)NCC4)cc2)ccc1C(C)C [Compound 234] |  |  | 20 | 6.7 | 7.1 |  | 126 | > 10 |  |  |
| CC(C)c1cc(F)c(COc2ccc(-c3c(-c4ccncc4)nn4c3C(=O)N(CC(O)CO)CC4)cc2)c(F)c1 (stereo not shown) [Compound 95] | 6.4 | 227 | 158 |  | 6.8 |  |  |  |  | > 10 |
| CC(C)c1ccc(COc2ccc(-c3c(-c4ccncc4)nn4c3C(=O)NCC4)cc2)cc1OCCO [Compound 89] |  |  | 31.6 | 7.1 | 7.6 |  | 200 | > 10 |  |  |
| O=C1c2c(-c3ccc(OCc4ccc(C5CC5)nc4)cc3F)c(-c3ccncc3)nn2CCN1CC(O)CO (stereo not shown) [Compound 208] |  |  | 63.1 | 6.3 | 6.8 |  |  |  | 398 | > 10 |
| CC(C)c1ccc(COc2ccc(-c3c(-c4ccncn4)nn4c3C(=O)N(CCOCCO)CC4)cc2)cc1 [Compound 162] |  |  | 79.4 | 7.1 | 7.2 |  | 398 | > 10 |  |  |
